According to paper PMC9578143, “Small-Molecule Ebselen Binds to YTHDF Proteins Interfering with the Recognition of N^6-Methyladenosine-Modified RNAs” (ACS Pharmacology & Translational Science, 2022):

What was measured:
[1] = target: T1, YTHDF1 YTH domain (Homo sapiens, UniProt Q9BYJ9); test: NMR titration (2D 1H-15N HSQC) in reducing conditions; assay type: binding; details: 10 mM β-mercaptoethanol, 100 μM protein
T1 construct: The human YTHDF1 YTH domain (amino acids 365–554, PDB: 4RCJ); host or cells: E. coli BL21(DE3)
T1 sequence (Q9BYJ9 365-554): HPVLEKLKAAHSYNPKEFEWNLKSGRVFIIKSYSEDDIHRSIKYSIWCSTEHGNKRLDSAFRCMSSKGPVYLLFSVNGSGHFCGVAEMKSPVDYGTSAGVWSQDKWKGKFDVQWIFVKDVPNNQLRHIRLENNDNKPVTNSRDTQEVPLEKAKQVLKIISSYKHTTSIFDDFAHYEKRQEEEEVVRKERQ
Method: To further investigate the ligand–protein interaction in reversible conditions, the resonances of the YTHDF1 YTH domain were assigned. The protein sample was titrated with ebselen, in the presence of β-mercaptoethanol (10 mM) as a reducing agent, to prevent the covalent bond formation. The titration was monitored by NMR to map at atomic resolution the ligand-binding site on the protein surface. Increasing amounts of the ligand (12.5, 25, 50, 100, and 200 μM) were added to the protein solution during the NMR titration, and 2D ^1H–^15N heteronuclear single quantum coherence (HSQC) spectra were acquired.
The interaction of the protein with ebselen was investigated by solution NMR. 2D ^1H–^15N HSQC spectra were acquired on a spectrometer operating at 950 MHz and 298 K, on the free protein (100 μM in 20 mM Tris buffer, pH 7.5, 150 mM NaCl, 250 mM LiCl, 10 mM 2-mercaptoethanol, 0.5 mM EDTA, 0.1% NaN3, and protease inhibitors) and after the addition of increasing aliquots of a solution of the ligand in DMSO-d6 to reach the final concentrations of 12.5, 25, 50, 100, and 200 μM.

[2] = target: T2, YTHDF1 in HEK293T cells (Homo sapiens, UniProt Q9BYJ9); test: Cellular thermal shift assay (CETSA); assay type: cell-based; details: 50 μM, 3 h, versus DMSO, listed as Ebselen
T2 construct: endogenous in cells; host or cells: HEK293T
T2 sequence (Q9BYJ9 1-559): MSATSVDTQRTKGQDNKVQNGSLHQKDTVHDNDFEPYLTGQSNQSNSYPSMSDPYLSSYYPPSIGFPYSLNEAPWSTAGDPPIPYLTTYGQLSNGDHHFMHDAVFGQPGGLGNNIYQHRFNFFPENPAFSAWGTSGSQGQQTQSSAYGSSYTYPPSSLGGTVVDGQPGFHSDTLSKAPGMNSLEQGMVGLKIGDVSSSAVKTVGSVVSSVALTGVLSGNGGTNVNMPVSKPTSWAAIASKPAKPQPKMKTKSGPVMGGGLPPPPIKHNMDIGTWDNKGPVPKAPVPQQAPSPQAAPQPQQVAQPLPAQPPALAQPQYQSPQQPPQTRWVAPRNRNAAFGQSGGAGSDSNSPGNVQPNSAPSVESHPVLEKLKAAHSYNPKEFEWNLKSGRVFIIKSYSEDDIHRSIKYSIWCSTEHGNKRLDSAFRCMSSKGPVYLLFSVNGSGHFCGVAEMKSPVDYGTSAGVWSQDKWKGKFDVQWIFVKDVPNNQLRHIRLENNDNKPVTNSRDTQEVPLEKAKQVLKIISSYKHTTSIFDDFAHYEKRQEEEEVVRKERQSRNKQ
Method: HEK293T cells were seeded on 100 mm cell culture plate/s and allowed to adhere overnight. At 80% of confluency, cells were treated with 50 μM ebselen or DMSO as a control and incubated for 3 h at 37 °C in the CO2 incubator. Cells were centrifuged and resuspended in PBS and the protease inhibitor, at a concentration of (0.5–1) × 10^6 cells /100 μL of suspension. Lysates were divided into 9–10 aliquots of 100 μL into 0.2 mL microcentrifuge tubes and incubated at a temperature gradient on a PCR machine for 3 min. After incubation, lysates were frozen and thawed five times in dry ice and at 27 °C for 3 min each. All tubes were then centrifuged at 4 °C for 20 min at 12,000 rpm. Supernatants were then collected and transferred to clean tubes with a loading buffer 5×, heated for 10 min at 95 °C, and detected with Western Blot. The blot was then plotted with a YTHDF1 (Proteintech, 17479-1-AP) and actin (Cell Signaling, 12620S) primary antibody and subsequently with anti-Rabbit HRP (Santa Cruz, sc-2357) and anti-mouse HRP (Thermo Fisher, 61-6520). Chemiluminescent detection was performed using Amersham ECL Prime (GE Healthcare).

O=c1c2ccccc2[se]n1-c1ccccc1 [Compound 1, 2-phenyl-1,2-benzisoselenazol-3(2H)-one]
Affinity constant judged from NMR titration (in words) [1]: low micromolar range
ΔTagg of YTHDF1 (CETSA) [2]: 3.48 °C
